Key:
[1] = tested on: basophils (CD63 expression) in human whole blood; assay: 384-well HTBS Whole Blood CD63 Basophil Assay; assay type: cell-based; settings: human whole blood (25% blood); comparison table
Description: Syk activity was assessed in relation to reduced activation of basophils as measured by the expression of CD63 in a human whole blood basophil cellular assay (25% blood). Basophil activation was measured in human whole blood using the Flow CAST kit (Buhlmann Laboratories AG, Baselstrasse, Switzerland) following the protocol provided by the manufacturer with minor modifications. Fresh human whole blood in heparin was collected and delivered same day (AllCells, Emeryville, Calif.). Whole blood samples were incubated with either DMSO (1% final) or serial diluted compounds in DMSO for 60 minutes at 37° C. Basophils were activated using the anti-FceRI mAb and stained with anti-CD63-FITC and anti-CCR3-PE for 20 minutes at 37° C. (per well: 50 μL of whole blood was mixed with 113 μL of stimulation buffer, 8.5 μL anti-FceRI mAb, 8.5 μL Ab stain CCR3-PE/CD63-FITC). Cells were centrifuged at 1000×g for 18 minutes and 150 μL/well of supernatant removed. Red blood cells were lysed and cells fixed by 2 rounds of cell lysing: resuspending cell pellets with 150 μL/well 1× lysis buffer, incubating at room temperature for 10 minutes, and collecting cell pellets by centrifuging for 1200 rpms for 5 minutes. Cells were washed with 150 μL/well wash buffer twice, and resuspended in a final volume of 75 μL/well of wash buffer for either immediate flow cytometery analysis or overnight incubation at 4° C. followed by flow cytometry analysis. Degranulation (basophil activation) was detected by CD63 surface expression on CCR3 positive cells. The percent CD63 positive cells within the gated basophil population were determined and normalized to the DMSO (negative control) and control compound (positive control).

hepatocytes = assay type: in vitro ADME; settings: human
Description: The human […] stability of the compounds as predicted hepatocyte clearance in L/hr/kg was assessed. Compounds to be tested were diluted to 200 μM (4 μl of 10 mM DMSO stock into 196 μl ACN:H2O (50:50). Propranolol was used as a positive control, and buffer only without hepatocytes as 0% control. These were further diluted 4 μl with 891 μl KHB buffer (InVitroGRO catalog number Z99074) to provide 2× dosing solution. To each well of 24 well plate, 250 μl of the 2× dosing solution was added to each well with 250 μl of hepatocytes cells (1×10^6 viable cells/ml per well) or KHB for control samples to achieve a final compound concentration of 1 μM during incubation. The final solvent concentration was 0.01% DMSO and 0.25% ACN. The culture plate was placed on a rocker and incubated at 37° C., 5% CO2. Samples were collected at time 0, 1, 3, and 6 hours. The loss of parent compound was determined using LC-MS methods against a standard curve.

[2] = tested on: B cells (CD19+) in PBMCs from cGVHD and inactive cGVHD subjects; assay: Apoptosis Assay: B cells in PBMCs from subjects with active or inactive cGVHD, flow cytometry; assay type: cell-based, human; settings: 48 hours
Description: Entospletinib (Formula I) was prepared as a 10 mM stock in dimethyl sulfoxide (DMSO). Before use, entospletinib was thawed from 10 mM DMSO stocks frozen in 0.75 mL polypropylene tubes at −20° C.
For untreated PBMCs, DMSO alone (the diluent used to generate entospletinib stock solution) was used in the cultures at the equivalent volume as for the 1.0 μM entospletinib treatment group. The cells were then incubated for 48 hr at 37° C. and 5% CO2, harvested, and assessed for the frequency of apoptotic B cells by flow cytometry analysis as described below.
Flow Cytometry Analysis—Cultured PBMCs were washed in FACS wash buffer (PBS containing 2% FBS) and then resuspended in FACS wash containing Fc block (Human TruStain FcXTM Fc Receptor Blocking Solution from BioLegend, San Diego, Calif.) at the recommended concentration. Following a 15 minute incubation on ice, the cells were stained with Pacific Blue™ conjugated anti-human CD19 antibody (BioLegend, Inc.) for an additional 30 min and then washed in cold PBS, followed by a second wash with Annexin V Binding Buffer (Annexin V Apoptosis Detection Kit-APC, eBioscience, Inc.) according to the manufacturer's instructions. The cells were then resuspended in Annexin V Binding Buffer containing APC-conjugated Annexin V, and incubated in the dark for 15 min at RT. Finally, the cells were washed with cold Annexin V Binding Buffer, resuspended in cold Annexin V Binding Buffer containing 7-AAD (BD Biosciences), kept on ice, and analyzed immediately on a FACSCantoTM flow cytometer. Flow cytometry data files were analyzed using FlowJo software (version X) to identify B cells and determine the frequencies of apoptotic cells based on Annexin V and 7-AAD staining.
For each set of patient samples, B cell apoptosis induced by entospletinib at each concentration was determined by the following ratio: % Annexin V^+/7-AAD^− B cells (entospletinib-treated)/% Annexin V^+/7-AAD^− B cells (untreated). […] Graphic display and curve fit analysis to determine the EC50 for entospletinib apoptosis-inducing activity in active cGVHD B cells was performed using GraphPad Prism software (GraphPad Software, La Jolla, Calif).

[3] = Kinetic Solubility in phosphate buffer at pH 7.4; assay type: physicochemical; settings: 37 °C, aqueous buffer, kinetic from dmso stock; phosphate buffer pH 7.4
Description: The kinetic solubility of compounds in phosphate buffer at pH 7.4 was assessed. The compounds to be tested were dissolved in dimethylsulfoxide at a 10 mM concentration. Stock samples were diluted, 3 μl with 297 μl of the phosphate buffer at pH 7.4 (DulBecco's phosphate buffered saline (Sigma-Aldrich D8662), overall molarity is 0.149 M and pH 7.43). The samples were then incubated for 24 hours at 37° C. with shaking, the centrifuged and an aliquot taken and tested relative to a known standard concentration of 0.1 mM.

Question: Which IC50 [1] does the source give for `COc1ccc(Nc2nc(-c3cccc(N)c3)cn3ccnc23)cc1OC` [6-(3-aminophenyl)-N-(3,4-dimethoxyphenyl)imidazo[1,2-a]pyrazin-8-amine, reference compound] here?
Answer: 809 nM

Question: And the Hheps CL (hepatocytes)?
Answer: 0.24 L/h/kg

Question: For `Cc1ncc(-c2cn3ccnc3c(Nc3ccc(N4CCOCC4)cc3)n2)cc1N` [6-(5-amino-6-methylpyridin-3-yl)-N-(4-morpholinophenyl)imidazo[1,2-a]pyrazin-8-amine, reference compound], which IC50 [1] is on record?
Answer: 250 nM

Question: And the Hheps CL (hepatocytes)?
Answer: 0.8 L/h/kg

Question: For `Nc1cncc(-c2cn3ccnc3c(Nc3ccc(N4CCOCC4)cc3)n2)c1` [6-(5-aminopyridin-3-yl)-N-(4-morpholinophenyl)imidazo[1,2-a]pyrazin-8-amine, reference compound], which Hheps CL (hepatocytes) is on record?
Answer: 0.68 L/h/kg

Question: With `COc1ccc(Nc2nc(-c3ccc(N)nc3)cn3ccnc23)cc1OC` [6-(6-aminopyridin-3-yl)-N-(3,4-dimethoxyphenyl)imidazo[1,2-a]pyrazin-8-amine, reference compound] as the compound, how does the Hheps CL (hepatocytes) read?
Answer: 0.9 L/h/kg

Question: Which results are given for `c1cn2cc(-c3ccc4cn[nH]c4c3)nc(Nc3ccc(N4CCOCC4)cc3)c2n1` [Entospletinib, 6-(1H-indazol-6-yl)-N-(4-morpholinophenyl)imidazo[1,2-a]pyrazin-8-amine]?
Answer: B cell apoptosis, one subject with cGVHD with low level of baseline apoptosis ([2]; 1.0-0.0078 μM): dose-dependent increase in B cell apoptosis; B cell apoptosis, other two cGVHD subjects with higher baseline level of apoptosis ([2]; 1.0-0.0078 μM): caused an increase in B cell apoptosis; apoptosis of B cells obtained from subjects with cGVHD ([2]; 1.0-0.0078 μM): caused apoptosis of B cells; B cell apoptosis in cGVHD samples versus subjects without cGVHD ([2]; >125 nM ENTO, mean of 3 donors): statistically significant dose-dependent increase in B cell apoptosis; Annexin V+/7AAD− (frequency of parent) ([2]; Inactive #1, 7.8 nM): 47.7; Annexin V+/7AAD− (frequency of parent) ([2]; Inactive #1, 15.6 nM): 45.7; Annexin V+/7AAD− (frequency of parent) ([2]; Inactive #1, 31.3 nM): 46.6; Annexin V+/7AAD− (frequency of parent) ([2]; Inactive #1, 62.5 nM): 47.5; Annexin V+/7AAD− (frequency of parent) ([2]; Inactive #1, 125 nM): 53.4; Annexin V+/7AAD− (frequency of parent) ([2]; Inactive #1, 250 nM): 51.3; Annexin V+/7AAD− (frequency of parent) ([2]; Inactive #1, 500 nM): 48.7; Annexin V+/7AAD− (frequency of parent) ([2]; Inactive #1, 1000 nM): 44.4; Annexin V+/7AAD− (frequency of parent) ([2]; Inactive #2, 7.8 nM): 41.5; Annexin V+/7AAD− (frequency of parent) ([2]; Inactive #2, 15.6 nM): 39.8; Annexin V+/7AAD− (frequency of parent) ([2]; Inactive #2, 31.3 nM): 43.9; Annexin V+/7AAD− (frequency of parent) ([2]; Inactive #2, 62.5 nM): 42.2; Annexin V+/7AAD− (frequency of parent) ([2]; Inactive #2, 125 nM): 43.2; Annexin V+/7AAD− (frequency of parent) ([2]; Inactive #2, 250 nM): 44.9; Annexin V+/7AAD− (frequency of parent) ([2]; Inactive #2, 500 nM): 50.2; Annexin V+/7AAD− (frequency of parent) ([2]; Inactive #2, 1000 nM): 50.4; Annexin V+/7AAD− (frequency of parent) ([2]; Inactive #3, 7.8 nM): 50.4; Annexin V+/7AAD− (frequency of parent) ([2]; Inactive #3, 15.6 nM): 51.2; Annexin V+/7AAD− (frequency of parent) ([2]; Inactive #3, 31.3 nM): 51.7; Annexin V+/7AAD− (frequency of parent) ([2]; Inactive #3, 62.5 nM): 52.1; Annexin V+/7AAD− (frequency of parent) ([2]; Inactive #3, 125 nM): 52.4; Annexin V+/7AAD− (frequency of parent) ([2]; Inactive #3, 250 nM): 56.2; Annexin V+/7AAD− (frequency of parent) ([2]; Inactive #3, 500 nM): 57.1; Annexin V+/7AAD− (frequency of parent) ([2]; Inactive #3, 1000 nM): 55.6; Annexin V+/7AAD− (frequency of parent) ([2]; cGVHD #1, 7.8 nM): 40.1; Annexin V+/7AAD− (frequency of parent) ([2]; cGVHD #1, 15.6 nM): 40.4; Annexin V+/7AAD− (frequency of parent) ([2]; cGVHD #1, 31.3 nM): 42.0; Annexin V+/7AAD− (frequency of parent) ([2]; cGVHD #1, 62.5 nM): 48.2; Annexin V+/7AAD− (frequency of parent) ([2]; cGVHD #1, 125 nM): 48.2; Annexin V+/7AAD− (frequency of parent) ([2]; cGVHD #1, 250 nM): 50.7; Annexin V+/7AAD− (frequency of parent) ([2]; cGVHD #1, 500 nM): 53.6; Annexin V+/7AAD− (frequency of parent) ([2]; cGVHD #1, 1000 nM): 55.0; Annexin V+/7AAD− (frequency of parent) ([2]; cGVHD #2, 7.8 nM): 41.0; Annexin V+/7AAD− (frequency of parent) ([2]; cGVHD #2, 15.6 nM): 40.7; Annexin V+/7AAD− (frequency of parent) ([2]; cGVHD #2, 31.3 nM): 39.6; Annexin V+/7AAD− (frequency of parent) ([2]; cGVHD #2, 62.5 nM): 41.5; Annexin V+/7AAD− (frequency of parent) ([2]; cGVHD #2, 125 nM): 43.9; Annexin V+/7AAD− (frequency of parent) ([2]; cGVHD #2, 250 nM): 48.6; Annexin V+/7AAD− (frequency of parent) ([2]; cGVHD #2, 500 nM): 48.3; Annexin V+/7AAD− (frequency of parent) ([2]; cGVHD #2, 1000 nM): 53.5; Annexin V+/7AAD− (frequency of parent) ([2]; cGVHD #3, 7.8 nM): 19.6; Annexin V+/7AAD− (frequency of parent) ([2]; cGVHD #3, 15.6 nM): 20.0; Annexin V+/7AAD− (frequency of parent) ([2]; cGVHD #3, 31.3 nM): 20.8; Annexin V+/7AAD− (frequency of parent) ([2]; cGVHD #3, 62.5 nM): 21.6; Annexin V+/7AAD− (frequency of parent) ([2]; cGVHD #3, 125 nM): 26.4; Annexin V+/7AAD− (frequency of parent) ([2]; cGVHD #3, 250 nM): 29.5; Annexin V+/7AAD− (frequency of parent) ([2]; cGVHD #3, 500 nM): 32.7; Annexin V+/7AAD− (frequency of parent) ([2]; cGVHD #3, 1000 nM): 42.2

Question: For `Cc1ncc(-c2cn3ccnc3c(Nc3ccc(N4CCN(C5COC5)CC4)cc3)n2)nc1N` [Ex.-1, 6-(6-amino-5-methylpyrazin-2-yl)-N-(4-(4-(oxetan-3-yl)piperazin-1-yl)phenyl)imidazo[1,2-a]pyrazin-8-amine], which solubility kinetic at 24 h [3] is on record?
Answer: > 90 µM

Question: What about the Hheps CL (hepatocytes) of the same compound?
Answer: 0.12 L/h/kg

Question: With `Nc1cncc(-c2cn3ccnc3c(Nc3ccc(N4CCN(C5COC5)CC4)cc3)n2)n1` [Ex.-2, 6-(6-aminopyrazin-2-yl)-N-(4-(4-(oxetan-3-yl)piperazin-1-yl)phenyl)imidazo[1,2-a]pyrazin-8-amine] as the compound, how does the solubility kinetic at 24 h [3] read?
Answer: > 90 µM

Question: And the Hheps CL (hepatocytes)?
Answer: 0.055 L/h/kg

Question: What does the source list for `Cc1ncc(-c2cn3ccnc3c(Nc3ccc(N4CCN(C5COC5)CC4)c(OCCO)c3)n2)nc1N` [Ex.-7, 2-(5-((6-(6-amino-5-methylpyrazin-2-yl)imidazo[1,2-a]pyrazin-8-yl)amino)-2-(4-(oxetan-3-yl)piperazin-1-yl)phenoxy)ethanol]?
Answer: solubility kinetic at 24 h [3]: > 90 µM; Hheps CL (hepatocytes): 0.05 L/h/kg

Reference: patent US20160375019A1, “TREATMENT OF CHRONIC GRAFT VERSUS HOST DISEASE WITH SYK INHIBITORS” (Gilead Sciences, Inc., priority 2015, published 2016)
